Tested on: ERK phosphorylation
Assay: Analysis of ERK phosphorylation (Alphascreen SureFire Phospho-ERK 1/2)
Assay type: cell-based, human and mouse
Details: cells treated for 1 h; human melanoma cells, human and mouse colon cancer cells; read-out: Minimum concentration (nM) required for ≧80% inhibition of pERK
Method: This assay was carried out with human melanoma cells, human and mouse colon cancer cells. Cells were treated for 1 h with various concentrations of test compounds. ERK phosphorylation analysis was performed using the Alphascreen SureFire Phospho-ERK 1/2 Kit (Perkin Elmer), by following the manufacturer's instructions. % inhibition of ERK phosphorylation was determined as: 100−{(RFU test−RFU lysis buffer control)/(RFU vehicle treated control−RFU lysis buffer control)}×100. Percentage inhibition at concentrations of 0.01 nM, 0.03 nM, 0.1-0.9 nM, 1 nM to 3 nM, 4-100 nM, and >100 nM, for the stated examples is setworth here. The percentage inhibition at the above depicted concentrations for the compounds stated are given in the following groups.

| Structure (SMILES) | IC80 [nM] |
| --- | --- |
| Cc1c(=O)n(C)c(Nc2ccc(I)cc2F)c2c(=O)[nH]c(=O)n(-c3cccc(CCC(N)=O)c3)c12 [Compound 1, 3-(3-(5-((2-fluoro-4-iodophenyl)amino)-6,8-dimethyl-2,4,7-trioxo-3,4,6,7-tetrahydropyrido[4,3-d]pyrimidin-1(2H)-yl)phenyl)propanamide] | 1 to 3 |
| Cc1c(=O)n(C)c(Nc2ccc(I)cc2F)c2c(=O)[nH]c(=O)n(-c3cccc(C(=O)N4CCC4)c3)c12 [Compound 3, 1-(3-(azetidine-1-carbonyl)phenyl)-5-((2-fluoro-4-iodophenyl)amino)-6,8-dimethylpyrido[4,3-d]pyrimidine-2,4,7(1H,3H,6H)-trione] | 1 to 3 |
| Cc1c(=O)n(C)c(Nc2ccc(I)cc2F)c2c(=O)[nH]c(=O)n(-c3cccc(CC(=O)NC4CC4)c3)c12 [Compound 4, N-cyclopropyl-2-(3-(5-((2-fluoro-4-iodophenyl)amino)-6,8-dimethyl-2,4,7-trioxo-3,4,6,7-tetrahydropyrido[4,3-d]pyrimidin-1(2H)-yl)phenyl)acetamide] | 1 to 3 |
| Cc1c(=O)n(C)c(Nc2ccc(I)cc2F)c2c(=O)[nH]c(=O)n(-c3cccc(OCC(=O)NC4CC4)c3)c12 [Compound 6, N-cyclopropyl-2-(3-(5-((2-fluoro-4-iodophenyl)amino)-6,8-dimethyl-2,4,7-trioxo-3,4,6,7-tetrahydropyrido[4,3-d]pyrimidin-1(2H)-yl)phenoxy)acetamide] | 0.01 |
| Cc1c(=O)n(C)c(Nc2ccc(I)cc2F)c2c(=O)[nH]c(=O)n(-c3cccc(C(=O)N4CCOCC4)c3)c12 [Compound 7, 5-((2-fluoro-4-iodophenyl)amino)-6,8-dimethyl-1-(3-(morpholine-4-carbonyl)phenyl)pyrido[4,3-d]pyrimidine-2,4,7(1H,3H,6H)-trione] | 4 to 100 |
| Cc1c(=O)n(C)c(Nc2ccc(I)cc2F)c2c(=O)[nH]c(=O)n(-c3cccc(C(=O)N4CCS(=O)(=O)CC4)c3)c12 [Compound 8, 1-(3-(1,1-dioxidothiomorpholine-4-carbonyl)phenyl)-5-((2-fluoro-4-iodophenyl)amino)-6,8-dimethylpyrido[4,3-d]pyrimidine-2,4,7(1H,3H,6H)-trione] | 1 to 3 |
| Cc1c(=O)n(C)c(Nc2ccc(I)cc2F)c2c(=O)[nH]c(=O)n(-c3cccc(C(C)(C)C(N)=O)c3)c12 [Compound 9, 2-(3-(5-((2-fluoro-4-iodophenyl)amino)-6,8-dimethyl-2,4,7-trioxo-3,4,6,7-tetrahydropyrido[4,3-d]pyrimidin-1(2H)-yl)phenyl)-2-methylpropanamide] | 0.1 to 0.9 |
| Cc1c(=O)n(C)c(Nc2ccc(I)cc2F)c2c(=O)[nH]c(=O)n(-c3cccc(CC(=O)N(C)C)c3)c12 [Compound 10, 2-(3-(5-((2-fluoro-4-iodophenyl)amino)-6,8-dimethyl-2,4,7-trioxo-3,4,6,7-tetrahydropyrido[4,3-d]pyrimidin-1(2H)-yl)phenyl)-N,N-dimethylacetamide] | 0.1 to 0.9 |
| Cc1c(Nc2ccc(I)cc2F)c2c(=O)[nH]c(=O)n(-c3cccc(C(F)(F)C(N)=O)c3)c2n(C)c1=O [Compound 11, 2,2-difluoro-2-(3-(5-((2-fluoro-4-iodophenyl)amino)-6,8-dimethyl-2,4,7-trioxo-3,4,7,8-tetrahydropyrido[2,3-d]pyrimidin-1(2H)-yl)phenyl)acetamide] | 0.1 to 0.9 |
| Cc1c(=O)n(C)c(Nc2ccc(I)cc2F)c2c(=O)[nH]c(=O)n(-c3cccc(C(=O)NC4(C(N)=O)CC4)c3)c12 [Compound 12, N-(1-carbamoylcyclopropyl)-3-(5-((2-fluoro-4-iodophenyl)amino)-6,8-dimethyl-2,4,7-trioxo-3,4,6,7-tetrahydropyrido[4,3-d]pyrimidin-1(2H)-yl)benzamide] | 4 to 100 |
| Cc1c(=O)n(C)c(Nc2ccc(I)cc2F)c2c(=O)[nH]c(=O)n(-c3cccc(C(=O)NC4CCOCC4)c3)c12 [Compound 13, 3-(5-((2-fluoro-4-iodophenyl)amino)-6,8-dimethyl-2,4,7-trioxo-3,4,6,7-tetrahydropyrido[4,3-d]pyrimidin-1(2H)-yl)-N-(tetrahydro-2H-pyran-4-yl)benzamide] | 0.01 |
| Cc1c(=O)n(C)c(Nc2ccc(I)cc2F)c2c(=O)[nH]c(=O)n(-c3cccc(C(O)C(N)=O)c3)c12 (centres unmarked) [Compound 14, 2-(3-(5-((2-fluoro-4-iodophenyl)amino)-6,8-dimethyl-2,4,7-trioxo-3,4,6,7-tetrahydropyrido[4,3-d]pyrimidin-1(2H)-yl)phenyl)-2-hydroxyacetamide] | 4 to 100 |
| CNC(=O)CCc1cccc(-n2c(=O)[nH]c(=O)c3c(Nc4ccc(I)cc4F)n(C)c(=O)c(C)c32)c1 [Compound 15, 3-(3-(5-((2-fluoro-4-iodophenyl)amino)-6,8-dimethyl-2,4,7-trioxo-3,4,6,7-tetrahydropyrido[4,3-d]pyrimidin-1(2H)-yl)phenyl)-N-methylpropanamide] | 1 to 3 |
| Cc1c(=O)n(C)c(Nc2ccc(I)cc2F)c2c(=O)[nH]c(=O)n(-c3cccc(C(=O)N4CCS(=O)(=O)C4)c3)c12 [Compound 17, 1-(3-(1,1-dioxidothiazolidine-3-carbonyl)phenyl)-5-((2-fluoro-4-iodophenyl)amino)-6,8-dimethylpyrido[4,3-d]pyrimidine-2,4,7(1H,3H,6H)-trione] | 0.1 to 0.9 |
| Cc1c(=O)n(C)c(Nc2ccc(I)cc2F)c2c(=O)[nH]c(=O)n(-c3cccc(C(=O)N4CCC(O)CC4)c3)c12 [Compound 18, 5((2-fluoro-4-iodophenyl)amino)-1-(3-(4-hydroxypiperidine-1-carbonyl)phenyl)-6,8-dimethylpyrido[4,3-d]pyrimidine-2,4,7(1H,3H,6H)-trione] | 4 to 100 |
| Cc1c(=O)n(C)c(Nc2ccc(I)cc2F)c2c(=O)[nH]c(=O)n(-c3cccc(CCC(=O)NC4CC4)c3)c12 [Compound 19, N-cyclopropyl-3-(3-(5-((2-fluoro-4-iodophenyl)amino)-6,8-dimethyl-2,4,7-trioxo-3,4,6,7-tetrahydropyrido[4,3-d]pyrimidin-1(2H)-yl)phenyl)propanamide] | 4 to 100 |
| Cc1c(=O)n(C)c(Nc2ccc(I)cc2F)c2c(=O)[nH]c(=O)n(-c3cccc(OC(C)(C)C(N)=O)c3)c12 [Compound 20, 2-(3-(5-((2-fluoro-4-iodophenyl)amino)-6,8-dimethyl-2,4,7-trioxo-3,4,6,7-tetrahydropyrido[4,3-d]pyrimidin-1(2H)-yl)phenoxy)-2-methylpropanamide] | 1 to 3 |
| Cc1c(=O)n(C)c(Nc2ccc(I)cc2F)c2c(=O)[nH]c(=O)n(-c3cccc(C(=O)N4CCN(C)CC4)c3)c12 [Compound 21, 5-((2-fluoro-4-iodophenyl)amino)-6,8-dimethyl-1-(3-(4-methylpiperazine-1-carbonyl)phenyl)pyrido[4,3-d]pyrimidine-2,4,7(1H,3H,6H)-trione] | 0.1 to 0.9 |
| Cc1c(=O)n(C)c(Nc2ccc(I)cc2F)c2c(=O)[nH]c(=O)n(-c3cccc(C(=O)N4CCC(O)C4)c3)c12 (centres unmarked) [Compound 22, 5-((2-fluoro-4-iodophenyl)amino)-1-(3-(3-hydroxypyrrolidine-1-carbonyl)phenyl)-6,8-dimethylpyrido[4,3-d]pyrimidine-2,4,7(1H,3H,6H)-trione] | 4 to 100 |
| Cc1c(=O)n(C)c(Nc2ccc(I)cc2F)c2c(=O)[nH]c(=O)n(-c3cccc(C(=O)N4CCNCC4)c3)c12 [Compound 23, 5-((2-fluoro-4-iodophenyl)amino)-6,8-dimethyl-1-(3-(piperazine-1-carbonyl)phenyl)pyrido[4,3-d]pyrimidine-2,4,7(1H,3H,6H)-trione] | 4 to 100 |
| Cc1c(=O)n(C)c(Nc2ccc(I)cc2F)c2c(=O)n(C3CC3)c(=O)n(-c3cccc(C(=O)N4CCC4)c3)c12 [Compound 24, 1-(3-(azetidine-1-carbonyl)phenyl)-3-cyclopropyl-5-((2-fluoro-4-iodophenyl)amino)-6,8-dimethylpyrido[4,3-d]pyrimidine-2,4,7(1H,3H,6H)-trione] | 0.1 to 0.9 |
| Cc1c(=O)n(C)c(Nc2ccc(I)cc2F)c2c(=O)n(C3CC3)c(=O)n(-c3cccc(OCC(=O)NC4CC4)c3)c12 [Compound 25, N-cyclopropyl-2-(3-(3-cyclopropyl-5-((2-fluoro-4-iodophenyl)amino)-6,8-dimethyl-2,4,7-trioxo-3,4,6,7-tetrahydropyrido[4,3-d]pyrimidin-1(2H)-yl)phenoxy)acetamide] | 0.1 to 0.9 |
| Cc1c(=O)n(C)c(Nc2ccc(I)cc2F)c2c(=O)n(C3CC3)c(=O)n(-c3cccc(CC(N)=O)c3)c12 [Compound 26, 2-(3-(3-cyclopropyl-5-((2-fluoro-4-iodophenyl)amino)-6,8-dimethyl-2,4,7-trioxo-3,4,6,7-tetrahydropyrido[4,3-d]pyrimidin-1(2H)-yl)phenyl)acetamide] | 4 to 100 |
| Cc1c(=O)n(C)c(Nc2ccc(I)cc2F)c2c(=O)n(C3CC3)c(=O)n(-c3cccc(C(=O)N4CCCC4)c3)c12 [Compound 27, 3-cyclopropyl-5-((2-fluoro-4-iodophenyl)amino)-6,8-dimethyl-1-(3-(pyrrolidine-1-carbonyl)phenyl)pyrido[4,3-d]pyrimidine-2,4,7(1H,3H,6H)-trione] | 1 to 3 |
| Cc1c(=O)n(C)c(Nc2ccc(I)cc2F)c2c(=O)n(C3CC3)c(=O)n(-c3cccc(C(C)(C)C(N)=O)c3)c12 [Compound 28, 2-(3-(3-cyclopropyl-5-((2-fluoro-4-iodophenyl)amino)-6,8-dimethyl-2,4,7-trioxo-3,4,6,7-tetrahydropyrido[4,3-d]pyrimidin-1(2H)-yl)phenyl)-2-methylpropanamide] | 0.1 to 0.9 |
| Cc1c(Nc2ccc(I)cc2F)c2c(=O)n(C3CC3)c(=O)n(-c3cccc(C(F)(F)C(N)=O)c3)c2n(C)c1=O [Compound 30, 2-(3-(3-cyclopropyl-5-((2-fluoro-4-iodophenyl)amino)-6,8-dimethyl-2,4,7-trioxo-3,4,7,8-tetrahydropyrido[2,3-d]pyrimidin-1(2H)-yl)phenyl)-2,2-difluoroacetamide] | 1 to 3 |

Reference: patent US9428499B2, “Heterocyclyl compounds as MEK inhibitors” (LUPIN LIMITED, priority 2012, dated 2016)
